# Measured values published in patent publication US11401303B2, “Synthetic peptide BRAP and application in preparation of anti-inflammatory drug for COVID-19 thereof” (TAIAN CITY QIHANG BIOTECHNOLOGY CO., priority 2020, dated 2022).
# Ends that are not written are not given here.
# What was measured:
# TNF-a = TNF-a content in blood serum of LPS-induced mice (ELISA); type: in vivo, Balb/C mice
# Method: (§1) 1. A reagent was taken out of a kit and balanced for 30 min at room temperature;
# (§2) 2. standard wells and sample wells were set, and 50 ul standards at different concentrations were respectively added to each standard well.
# (§3) 3. 50 ul sample to be tested (blood sample from each group of mice model constructed in example 9) was first added to the wells of the sample to be tested;
# (§4) 4. 100 ul HRP-labeled detection antibody was respectively added to each standard well and well to be tested;
# (§5) 5. reaction wells were sealed by a microplate membrane for incubation for 60 min at 37° C.;
# (§6) 6. liquid was discarded, water was dried by an absorbent paper, each well was filled with scrubbing solution, standing for 1 min;
# (§7) 7. a culture solution was discarded, water was dried by an absorbent paper, and steps 2-6 were operated repeatedly for 5 times;
# (§8) 8. 50 ul substrate A/B was respectively added to each well for incubation for 15 min at 37° C.;
# (§9) 9. 50 ul stop buffer was added to each well to detect an OD value at 450 nm by an microplate reader within 15 min.
# Bradykinin B2 receptor = Bradykinin B2 receptor (Homo sapiens, UniProt P30411); assay: cell-based
# Bradykinin B2 receptor, sequence (P30411 whole entry): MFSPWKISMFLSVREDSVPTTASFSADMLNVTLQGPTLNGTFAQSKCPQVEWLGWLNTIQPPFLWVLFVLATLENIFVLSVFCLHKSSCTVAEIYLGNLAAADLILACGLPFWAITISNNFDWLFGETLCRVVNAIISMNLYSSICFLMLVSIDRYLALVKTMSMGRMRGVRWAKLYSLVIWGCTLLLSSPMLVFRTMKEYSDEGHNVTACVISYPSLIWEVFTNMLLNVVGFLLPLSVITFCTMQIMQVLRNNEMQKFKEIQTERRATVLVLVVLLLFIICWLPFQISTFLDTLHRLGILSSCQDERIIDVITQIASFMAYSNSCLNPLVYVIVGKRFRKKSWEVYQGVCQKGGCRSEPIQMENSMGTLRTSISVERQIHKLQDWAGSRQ
# [1] = Limit test on intravenous injection at 2000 mg/kg BW dose level; type: in vivo, Konmin mouse
# Method: I. Test Animal (Subject): Konmin Mouse: Healthy, Adult, Male, Weight≤20 g, and n=5 pcs
# III. Administration Route and Dose: 2000 mg/kg BW was Injected Via a Tail Vein
# Administration capacity: the maximum injection capacity of the mice tail vein was 0.5 ml/once, slow injection
# Dose and mode of administration: 40 mg/1.5 ml working solution was administered for 3 times within 9 h.
# 1) a test substance (synthetic peptide brap) having a dose of 2000 mg/kg was injected to the first Konmin mouse via tail vein;
# 2) whether of causing toxic responses (initial symptom, starting time, namely, time period after administration, severity and duration) was observed and recorded;
# 3) if the animal died, the response before being at death's door and the occurrence time of death were recorded.
# IL-6 = IL-6 content in blood serum of LPS-induced mice (ELISA); type: in vivo, Balb/C mice
# Method: as §1, §2, §3, §4, §5, §6, §7, §8, §9
# IL-6 mRNA = assay: IL6 mRNA expression in lung tissues of LPS-induced mice by qPCR; type: in vivo, Balb/C mice
# Method: 1.1 Lung tissue sample: a fresh lung tissue sample from each group of mice constructed in example 9 was taken and quick-frozen by liquid nitrogen as quickly as possible, and kept at […].
# 2. Extraction of total RNA (a total RNA extraction kit via a paramagnetic particle method was used)
# 2.1 The tissue sample was cut into small pieces, and ground (50 mg) to powder via liquid nitrogen, and transferred to a 1.5 ml tube free of RNA enzyme (cell sample and other liquid samples required no grinding, and were directly put to the next step).
# Using the operational method of Applied Biosystems 7300/7500/7500 Fast Real-Time PCR System and StepOnePlusTMReal-Time PCR System
# 1. Preparation of a PCR reaction liquid
# 2. Real Time PCR reaction was performed.
# At the end of the reaction, an amplification curve and dissociation curve of Real Time
# PCR were confirmed, and 2^−ΔΔct and the like were calculated.
# endotoxin = assay: Endotoxin content in blood of LPS-induced mice (LAL kit); type: in vivo, Balb/C mice; details: low, medium and high dose (4, 8, 16 mg/kgBW i.v.); 6 h after LPS 5 mg/kg BW i.p.; dose-response relationship
# Method: The detection was performed according to the specification of the endotoxin test LAL (Limulus Amebocyte Lysate) kit:
# (1) anticoagulant venous blood of each group of mice constructed in example 9 was taken and centrifuged for 2 min at 3000 rpm/min; 100 ul supernate was taken and added to a 0.9 ml sample treating fluid;
# (2) the above sample was put in a 70° C. dry-heat sterilization box for 10 min, then cooled by running water;
# (3) concentration gradient of an endotoxin standard was 1.0, 0.5, 0.25 and 0.1 EU/ml;
# (4) several endotoxin-free test tubes were taken, and 100 ul water for detecting bacterial endotoxin, an endotoxin standard and a test product were added respectively;
# (6) 100 ul TAL solution was added, mixed evenly, and covered by a silver paper, and incubated for 10 min at 37° C.;
# (7) 100 ul developing-matrix solution was added, mixed evenly, and incubated for 6 min at 37° C.;
# (8) 500 ul azo reagent 1 was added and mixed evenly;
# (9) 500 ul azo reagent 2 was added and mixed evenly;
# (10) 500 ul azo reagent 3 was added, mixed evenly, standing for 5 min;
# (11) OD value was measured at 545 nm.
# ROS = ROS fluorescence intensity in lung tissue of LPS-induced mice by flow cytometry; type: in vivo, Balb/C mice
# Method: 1. About 100 mg fresh left lung tissue from each group of mice constructed in example 9 was taken and washed for three times with PBS to remove blood;
# 2. the tissue was put in a nylon net, ground by a grinding rod, and washed by PBS;
# 3. a cell suspension was collected, and filtered by a 200-mesh sieve to remove tissue blocks;
# 4. the cell suspension was collected and centrifuged for 5 min at 1000 rpm/min;
# 5. cellular supernatant was removed and PBS was added for resuspending;
# 6. 10 μmol/L DCFH-DA was prepared with a serum-free culture solution;
# 7. cells were centrifuged to remove PBS, and the above probe diluent was added to make the cell concentration being 10^6/ml;
# 8. the cells were incubated for 30 min at 37° C., and shaken off for once every 3 min;
# 9. the cells were centrifuged for 5 min at 1000 rpm/min, and cell precipitates were resuspended on a serum-free culture medium;
# 10. step 9 was repeated for twice;
# 11. 500 μL PBS was added to resuspend cells, and flow cytometry was used to detect mean fluorescence intensity.
# Bradykinin B1 receptor = target: T1, Bradykinin B1 receptor (Homo sapiens, UniProt P46663); type: cell-based
# T1 construct: host or cells: HEK293/Gα15/B1
# T1 sequence (P46663 1-353): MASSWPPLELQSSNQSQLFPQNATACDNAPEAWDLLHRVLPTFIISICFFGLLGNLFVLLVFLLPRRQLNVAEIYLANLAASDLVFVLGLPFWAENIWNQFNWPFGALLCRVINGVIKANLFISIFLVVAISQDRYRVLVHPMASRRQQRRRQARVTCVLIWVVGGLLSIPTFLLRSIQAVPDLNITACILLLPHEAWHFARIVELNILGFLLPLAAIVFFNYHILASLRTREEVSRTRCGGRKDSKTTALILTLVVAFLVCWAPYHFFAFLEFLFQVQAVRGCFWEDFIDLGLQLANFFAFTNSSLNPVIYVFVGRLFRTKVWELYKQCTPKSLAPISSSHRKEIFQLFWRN
# [2] = low, medium and high-dose intravenous injection groups, p<0.01
# [3] = nasal dripping group, at 12 h, P<0.05
# [4] = 2000 mg/kg BW via tail vein in 3 injections, individual mouse
sequence,measurement,setting,value
RVLNGPEAPA [brap],TNF-a level in serum compared with the model group,TNF-a; [2],dose-response relationship
same,TNF-a level in LPS-induced blood,TNF-a; [3],can decrease
same,IC50,Bradykinin B2 receptor,~1 mM
same,"Death situation/survival animals, 72 h after administering",[1]; [4],No death
same,Toxic response manifestation,[1]; [4],No abnormal
same,Toxicity in the limit test,"[1]; intravenous injection of 2000 mg/kg BW, mice n=5",no toxicity was found
same,LD50 at 9 h,"[1]; male, Konmin, in vivo, 2000 mg/kg BW, intravenous, mouse, judgment rule if survival animals ≥3 (5 of 5 survived)",> 2000 mg/kg
same,IL-6 level in serum compared with the model group,IL-6; [2],dose-response relationship
same,IL-6 level in LPS-induced blood,IL-6; [3],can decrease
same,IL-6 mRNA overexpression in lung tissues,IL-6 mRNA; intranasal administration,obviously decrease the overexpression
same,IL-6 mRNA overexpression in lung tissues,IL-6 mRNA; intravenous injection,obviously decrease the overexpression
same,Blood endotoxin level compared with the model group,endotoxin,obviously below that in the model group
same,ROS content in lung tissues,ROS; induced by LPS for 6 h,obviously reducing the increase in ROS content
same,ROS content in lung tissue,ROS; induced by LPS for 12 h,obviously reducing the increase in ROS content
same,ROS content in lung tissues,"ROS; intranasal administration, LPS-induced mice",reducing the overly increased ROS content
same,ROS content in lung tissues,"ROS; intravenous injection, LPS-induced mice",obviously decreases the overly increased ROS content
same,Effect of compound acting together with EC10 and EC20,Bradykinin B1 receptor,no obvious effect
same,Inhibitory activity on B1 receptor activation by EC80 irritant,Bradykinin B1 receptor,obviously inhibited
